Assays:
Assay in all cases: Kinase inhibitor library screening, PrestoBlue cell viability, 1 or 10 μM, 72 h
[1] = system: A375-XP cells (Vemurafenib-resistant); details: A375 XP; for cell viability (kinase inhibitor library screening): in %
[2] = system: 501Mel-XP cells (Vemurafenib-resistant); details: 501Mel XP, in %
[3] = system: 501Mel-GP cells (Dabrafenib-resistant); details: 501Mel GP, in %
[4] = system: IGR37-XP cells (Vemurafenib-resistant); details: IGR37 XP
[5] = system: IGR37-GP cells (Dabrafenib-resistant); details: IGR37 GP
501Mel cells (parental) = details: 501Mel Parental, in %
Method in brief: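 Kinase inhibitors added at two fixed concentrations; 72 h exposure; PrestoBlue readout; % viability vs untreated; n ≥ 2 per line.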

IGR37 cells (parental) = details: IGR37 Parental, in %
A375 cells (parental) = details: A375 Parental; for cell viability (kinase inhibitor library screening): in %
[6] = system: A375-GP cells (Dabrafenib-resistant); details: A375 GP; for cell viability (kinase inhibitor library screening): in %

Structure (SMILES): COc1cc2/c(=N/c3ccc(Br)cc3F)nc[nH]c2cc1OCC1CCN(C)CC1 [Vandetanib (Zactima)]
- cell viability (kinase inhibitor library screening) ([1]; 1μΜ): 103.0
- cell viability (kinase inhibitor library screening) ([1]; 10μΜ): 39.3
- cell viability (kinase inhibitor library screening) ([2]; 1μΜ): 89.6
- cell viability (kinase inhibitor library screening) ([2]; 10μΜ): -0.445
- cell viability (kinase inhibitor library screening) ([3]; 10μΜ): 0.0201
- cell viability (kinase inhibitor library screening) ([4]; 1μΜ, in %): 94.5
- cell viability (kinase inhibitor library screening) ([4]; 10μΜ, in %): 3.2
- cell viability (kinase inhibitor library screening) ([5]; 1μΜ, in %): 93.4
- cell viability (kinase inhibitor library screening) ([5]; 10μΜ, in %): 31.3
- cell viability (kinase inhibitor library screening) (501Mel cells (parental); 1μΜ): 98.8
- cell viability (kinase inhibitor library screening) (501Mel cells (parental); 10μΜ): 0.4
- cell viability (kinase inhibitor library screening) (IGR37 cells (parental); 1μΜ): 96.5
- cell viability (kinase inhibitor library screening) (IGR37 cells (parental); 10μΜ): 11.2
- cell viability (kinase inhibitor library screening) (A375 cells (parental); 1μΜ): 98.6
- cell viability (kinase inhibitor library screening) (A375 cells (parental); 10μΜ): 48.0
- cell viability (kinase inhibitor library screening) ([6]; 1μΜ): 98.8
- cell viability (kinase inhibitor library screening) ([6]; 10μΜ): 19.2

Structure (SMILES): Cl.Cl.Clc1ccc(Nc2nnc(Cc3ccncc3)c3ccccc23)cc1 [Vatalanib dihydrochloride (PTK787)]
- cell viability (kinase inhibitor library screening) ([1]; 10μΜ): 99.5
- cell viability (kinase inhibitor library screening) ([2]; 1μΜ): 94.6
- cell viability (kinase inhibitor library screening) ([2]; 10μΜ): 73.0
- cell viability (kinase inhibitor library screening) ([3]; 1μΜ): 106.0
- cell viability (kinase inhibitor library screening) ([3]; 10μΜ): 81.7
- cell viability (kinase inhibitor library screening) ([4]; 10μΜ, in %): 58.7
- cell viability (kinase inhibitor library screening) ([5]; 1μΜ, in %): 95.0
- cell viability (kinase inhibitor library screening) ([5]; 10μΜ, in %): 83.6
- cell viability (kinase inhibitor library screening) (501Mel cells (parental); 1μΜ): 98.6
- cell viability (kinase inhibitor library screening) (501Mel cells (parental); 10μΜ): 93.0
- cell viability (kinase inhibitor library screening) (IGR37 cells (parental); 1μΜ): 118.3
- cell viability (kinase inhibitor library screening) (IGR37 cells (parental); 10μΜ): 92.4
- cell viability (kinase inhibitor library screening) (A375 cells (parental); 1μΜ): 105.1
- cell viability (kinase inhibitor library screening) (A375 cells (parental); 10μΜ): 92.8
- cell viability (kinase inhibitor library screening) ([6]; 1μΜ): 96.3
- cell viability (kinase inhibitor library screening) ([6]; 10μΜ): 92.3

Structure (SMILES): CCCS(=O)(=O)Nc1ccc(F)c(C(=O)c2c[nH]c3ncc(-c4ccc(Cl)cc4)cc23)c1F [Vemurafenib (PLX4032)]
- Cell viability in kinase inhibitor library screening, A375 XP, 1μΜ ([1]; 1μΜ, 72 h): 98.7
- Cell viability in kinase inhibitor library screening, A375 XP, 10μΜ ([1]; 10μΜ, 72 h): 76.6
- Cell viability in kinase inhibitor library screening, 501Mel XP, 1μΜ ([2]; 1μΜ, 72 h): 94.9
- Cell viability in kinase inhibitor library screening, 501Mel XP, 10μΜ ([2]; 10μΜ, 72 h): 68.0
- Cell viability in kinase inhibitor library screening, 501Mel GP, 1μΜ ([3]; 1μΜ, 72 h): 104.7
- Cell viability in kinase inhibitor library screening, 501Mel GP, 10μΜ ([3]; 10μΜ, 72 h): 81.3
- Cell viability in kinase inhibitor library screening, IGR37 XP, 10μΜ ([4]; 10μΜ, 72 h): 67.9%
- Cell viability in kinase inhibitor library screening, IGR37 XP, 1μΜ ([4]; 1μΜ, 72 h, in %): 97.0
- Cell viability in kinase inhibitor library screening, IGR37 GP, 10μΜ ([5]; 10μΜ, 72 h): 88.3%
- Cell viability in kinase inhibitor library screening, IGR37 GP, 1μΜ ([5]; 1μΜ, 72 h, in %): 94.0
- Cell viability in kinase inhibitor library screening, 501Mel Parental, 1μΜ (501Mel cells (parental); 1μΜ, 72 h): 65.5
- Cell viability in kinase inhibitor library screening, 501Mel Parental, 10μΜ (501Mel cells (parental); 10μΜ, 72 h): 61.7
- Cell viability in kinase inhibitor library screening, IGR37 Parental, 1μΜ (IGR37 cells (parental); 1μΜ, 72 h): 43.2
- Cell viability in kinase inhibitor library screening, IGR37 Parental, 10μΜ (IGR37 cells (parental); 10μΜ, 72 h): 34.4
- Cell viability in kinase inhibitor library screening, A375 Parental, 10μΜ (A375 cells (parental); 10μΜ, 72 h): 14.6
- Cell viability in kinase inhibitor library screening, A375 Parental, 1μΜ (A375 cells (parental); 1μΜ, 72 h): 28.6
- Cell viability in kinase inhibitor library screening, A375 GP, 1μΜ ([6]; 1μΜ, 72 h): 92.1
- Cell viability in kinase inhibitor library screening, A375 GP, 10μΜ ([6]; 10μΜ, 72 h): 68.9
